Assay results taken from patent US20230257376A1, “ROCK INHIBITOR, AND PREPARATION METHOD THEREFOR AND USE THEREOF” (WUHAN LL SCIENCE AND TECHNOLOGY DEVELOPMENT CO., LTD., priority 2020, published 2023).

How the values were obtained:
ROCK2 kinase = biological target: T1, ROCK2 kinase (Homo sapiens, UniProt O75116); test: In vitro evaluation of ROCK2 kinase activity (HTRF KinEASE-STK time-resolved fluorometric assay); format: biochemical; conditions: ROCK2 kinase 0.4 ng/μL, ATP 6.739 μM
T1 construct: purchased Invitrogen PV3759
T1 sequence (O75116 whole entry): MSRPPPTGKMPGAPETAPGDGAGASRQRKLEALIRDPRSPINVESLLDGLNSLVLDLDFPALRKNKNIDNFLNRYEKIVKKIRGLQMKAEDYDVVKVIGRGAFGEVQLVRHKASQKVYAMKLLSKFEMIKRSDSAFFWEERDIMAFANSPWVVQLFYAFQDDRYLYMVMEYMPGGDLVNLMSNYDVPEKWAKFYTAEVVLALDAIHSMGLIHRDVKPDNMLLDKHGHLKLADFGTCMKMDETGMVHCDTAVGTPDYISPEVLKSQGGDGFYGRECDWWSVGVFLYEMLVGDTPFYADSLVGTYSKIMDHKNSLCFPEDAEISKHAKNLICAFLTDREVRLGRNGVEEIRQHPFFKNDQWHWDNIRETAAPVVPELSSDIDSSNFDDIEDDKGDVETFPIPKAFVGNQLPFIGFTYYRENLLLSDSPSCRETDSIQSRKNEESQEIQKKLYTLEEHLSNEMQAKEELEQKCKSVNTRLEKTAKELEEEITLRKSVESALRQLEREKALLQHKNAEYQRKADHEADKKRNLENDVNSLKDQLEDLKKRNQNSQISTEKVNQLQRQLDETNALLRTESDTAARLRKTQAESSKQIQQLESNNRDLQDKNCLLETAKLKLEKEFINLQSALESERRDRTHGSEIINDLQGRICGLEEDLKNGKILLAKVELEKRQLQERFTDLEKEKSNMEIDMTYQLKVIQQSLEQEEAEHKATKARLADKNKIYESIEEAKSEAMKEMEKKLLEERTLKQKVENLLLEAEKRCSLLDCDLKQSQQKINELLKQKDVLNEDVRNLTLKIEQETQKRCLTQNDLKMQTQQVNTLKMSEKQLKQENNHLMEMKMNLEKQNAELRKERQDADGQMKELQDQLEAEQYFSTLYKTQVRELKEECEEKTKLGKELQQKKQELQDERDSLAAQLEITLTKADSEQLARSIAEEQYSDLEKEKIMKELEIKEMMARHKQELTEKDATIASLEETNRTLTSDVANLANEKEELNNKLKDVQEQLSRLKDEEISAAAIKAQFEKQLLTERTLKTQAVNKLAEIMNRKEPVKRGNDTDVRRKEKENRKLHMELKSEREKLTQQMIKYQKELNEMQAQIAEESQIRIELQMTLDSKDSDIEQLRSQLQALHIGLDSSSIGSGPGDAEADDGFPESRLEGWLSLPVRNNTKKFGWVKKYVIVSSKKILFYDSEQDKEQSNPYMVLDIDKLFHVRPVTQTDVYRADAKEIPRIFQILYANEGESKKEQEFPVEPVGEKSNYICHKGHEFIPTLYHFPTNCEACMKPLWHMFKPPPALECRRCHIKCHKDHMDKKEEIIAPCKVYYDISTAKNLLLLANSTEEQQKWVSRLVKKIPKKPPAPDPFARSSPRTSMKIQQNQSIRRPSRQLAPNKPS
Method in brief: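 Recombinant kinase (0.4 ng/μL final) preincubated 0.5 h at RT with compound (1% DMSO), then 2 h with 6.739 μM ATP and 1 μM biotinylated STK substrate 2 (final). HTRF readout via STK antibody-cryptate/streptavidin-XL665 after ~1 h; buffer 5 mM MgCl2, 1 mM DTT.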

ROCK1 kinase = biological target: T2, ROCK1 kinase (Homo sapiens, UniProt Q13464); test: In vitro evaluation of ROCK1 kinase selectivity (HTRF KinEASE-STK time-resolved fluorometric assay); format: biochemical; conditions: ROCK1 kinase 0.4 ng/μL, ATP 3.53 μM
T2 construct: purchased Invitrogen
T2 sequence (Q13464 whole entry): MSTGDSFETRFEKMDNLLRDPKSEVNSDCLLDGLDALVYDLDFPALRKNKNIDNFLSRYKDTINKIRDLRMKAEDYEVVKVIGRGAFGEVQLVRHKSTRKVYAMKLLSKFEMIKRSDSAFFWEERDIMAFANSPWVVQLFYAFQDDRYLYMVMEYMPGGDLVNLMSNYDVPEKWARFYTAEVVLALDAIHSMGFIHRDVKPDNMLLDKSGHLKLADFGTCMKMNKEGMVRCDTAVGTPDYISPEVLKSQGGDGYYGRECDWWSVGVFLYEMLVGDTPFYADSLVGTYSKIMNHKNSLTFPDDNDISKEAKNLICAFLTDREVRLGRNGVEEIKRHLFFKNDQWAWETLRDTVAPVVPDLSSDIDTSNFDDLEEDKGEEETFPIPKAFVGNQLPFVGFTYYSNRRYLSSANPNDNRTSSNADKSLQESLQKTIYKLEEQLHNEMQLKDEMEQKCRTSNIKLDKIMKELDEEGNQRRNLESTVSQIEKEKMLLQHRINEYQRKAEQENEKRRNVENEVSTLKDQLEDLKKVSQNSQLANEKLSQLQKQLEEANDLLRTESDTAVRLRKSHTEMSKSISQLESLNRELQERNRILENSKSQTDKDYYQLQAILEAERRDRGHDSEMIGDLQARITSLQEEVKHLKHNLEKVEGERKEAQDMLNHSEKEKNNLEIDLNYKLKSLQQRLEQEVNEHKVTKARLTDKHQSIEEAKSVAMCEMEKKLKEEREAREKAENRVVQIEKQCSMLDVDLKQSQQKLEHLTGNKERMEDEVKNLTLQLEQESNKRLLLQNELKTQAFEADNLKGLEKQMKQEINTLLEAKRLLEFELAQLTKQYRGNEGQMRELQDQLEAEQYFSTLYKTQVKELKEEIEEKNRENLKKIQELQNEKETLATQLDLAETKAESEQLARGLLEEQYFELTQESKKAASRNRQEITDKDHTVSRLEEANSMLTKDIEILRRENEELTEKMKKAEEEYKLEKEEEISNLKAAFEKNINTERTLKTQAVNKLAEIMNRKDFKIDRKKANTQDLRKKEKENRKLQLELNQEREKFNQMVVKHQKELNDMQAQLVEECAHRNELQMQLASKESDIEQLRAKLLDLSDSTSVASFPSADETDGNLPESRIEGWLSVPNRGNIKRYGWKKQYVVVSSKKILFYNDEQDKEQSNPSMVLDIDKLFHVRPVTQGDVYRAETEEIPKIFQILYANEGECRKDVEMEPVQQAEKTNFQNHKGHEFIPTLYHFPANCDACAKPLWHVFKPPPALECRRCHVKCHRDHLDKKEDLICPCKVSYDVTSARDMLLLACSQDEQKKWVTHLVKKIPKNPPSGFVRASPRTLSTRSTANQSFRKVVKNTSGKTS
Method in brief: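 HTRF KinEASE-STK assay with ROCK1 at 0.4 ng/μL final, preincubated with compound (1% DMSO) 0.5 h at room temperature. Reaction ran 2 h at room temperature with 3.53 μM ATP and 1 μM biotinylated STK-substrate 2, then detection via STK antibody-cryptate/streptavidin-XL665 after ~1 h.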

[1] = In vitro cytotoxicity assay in HepG2 cells using the CCK-8 method; format: cell-based; conditions: human
Protocol: In vitro cytotoxicity assay for the compounds disclosed herein was performed in HepG2 cells using the CCK-8 method. HepG2 cells (Beina Bio) in the logarithmic growth phase were collected, the concentration of cell suspension was adjusted, and then the cells were plated on a 96-well cell culture plate at 50,000 cells/well. The cells were then incubated overnight in a cell incubator (5%, 37° C.), and after 80-90% cell confluence was achieved, test compound at each concentration gradient or vehicle (DMSO) was added after medium change. The resulting mixture was incubated in the cell incubator (5%, 37° C.) for 48 h. After the treatment, the medium in the plate was discarded. The plate was washed twice with PBS, added with CCK-8 working solution (Beyotime) at 100 μL per well, and then incubated at 37° C. for 1.5 h in the dark. Absorbance at OD450 nm mil was measured for each well on a microplate reader, and CC50 value of each compound was analyzed and calculated.

[2] = In vitro metabolic stability, human liver microsome incubation; format: in vitro ADME; conditions: liver microsomes, 1 mg/mL protein, 37° C., read-out: T1/2 in human liver microsome
Protocol: (§1) The in vitro metabolic stability of the compounds disclosed herein was determined through incubation of liver microsomes of various species. A proper amount of test compound was added into a liver microsome reaction system (1 mg/mL liver microsome protein, 25 U/mL glucose-6 phosphate dehydrogenase, 1 mM NADP, 6 mM D-glucose 6-phosphate and 5 mM MgCl2), and then the mixture was incubated in a water bath kettle at 37° C. to start reaction. At each time point, 100 μL of the reaction liquid was added into a centrifuge tube containing 400 μL of internal standard working solution (containing a 200 ng/mL solution of dexamethasone, diclofenac, tolbutamide and labetalol in acetonitrile) precooled at 0° C. so as to stop the reaction, and the mixture was then centrifuged at 10,000 g for 10 min at 4° C. The supernatant was collected for LC-MS assay so as to obtain the values of in vitro metabolic half-life of the test compounds in liver microsomes of various species.

[3] = In vitro metabolic stability, rat liver microsome incubation; format: in vitro ADME; conditions: liver microsomes, 1 mg/mL protein, 37° C., read-out: T1/2 in rat liver microsome
Protocol: as §1

[4] = In vitro metabolic stability, guinea pig liver microsome incubation; format: in vitro ADME; conditions: liver microsomes, 1 mg/mL protein, 37° C., read-out: T1/2 in guinea pig liver microsome
Protocol: as §1

[5] = In vivo pharmacokinetic study in mice; conditions: mouse, plasma; for bioavailability: 1 mg/kg Po (fasted) vs 1 mg/kg Iv; for AUC(0-t) / Cmax: 1 mg/kg
Description: […] After administration, plasma of mice was collected at specific time points, and the concentration of the compound in the plasma was detected by LC-MS/MS (AB SCIEX Qtrap4500). The PK parameters of the compounds were statistically analyzed and calculated (WinNonlin V5.2, Pharsight) to show the pharmacokinetic properties of the compounds disclosed herein in mice.

Row | IC50 (ROCK2 kinase) | IC50 (ROCK1 kinase) | half-life [2] | half-life [3] | half-life [4] | bioavailability [5] | AUC(0-t) ([5]; Iv) | Cmax ([5]; Iv) | AUC(0-t) ([5]; Po (fasted)) | Cmax ([5]; Po (fasted)) | Structure (SMILES) | CC50 at 48 h [1]
1 | ≤ 0.05 µM | > 4.5 µM | 2.92 h | 1.72 h | 1.08 h | 59.7% | 120 ng·h/mL | 155 ng/mL | 71.8 ng·h/mL | 37.2 ng/mL | Cn1c(C(=O)N2CC(F)(F)C2)cc2c1CN(c1nccc(Nc3ccc(-c4cn[nH]c4)cc3)n1)CC2 [Compound L005, (6-(4-((4-(1H-pyrazol-4-yl)phenyl)amino)pyrimidin-2-yl)-1-methyl-4,5,6,7-tetrahydro-1H-pyrrolo[2,3-c]pyridin-2-yl)(3,3-difluoroazetidin-1-yl)methanone] | > 100 µM
2 | ≤ 0.05 µM | > 4.5 µM | 3.11 h | 1.21 h | 0.751 h | 12.2% | 872 ng·h/mL | 2570 ng/mL | 106 ng·h/mL | 41.3 ng/mL | Cn1c(C(=O)NCC(F)(F)F)cc2c1CN(c1nccc(Nc3ccc(-c4cn[nH]c4)cc3)n1)CC2 [Compound L017, 6-(4-((4-(1H-pyrazol-4-yl)phenyl)amino)pyrimidin-2-yl)-1-methyl-N-(2,2,2-trifluoroethyl)-4,5,6,7-tetrahydro-1H-pyrrolo[2,3-c]pyridine-2-carboxamide] | 33.4 µM
3 | ≤ 0.05 µM | > 4.5 µM | 1.59 h | 1.16 h | 0.969 h | 54% | 266 ng·h/mL | 463 ng/mL | 144 ng·h/mL | 64.5 ng/mL | Cn1c(C(=O)N2CC(C(F)F)C2)cc2c1CN(c1nccc(Nc3ccc(-c4cn[nH]c4)cc3)n1)CC2 [Compound L060, (6-(4-((4-(1H-pyrazol-4-yl)phenyl)amino)pyrimidin-2-yl)-1-methyl-4,5,6,7-tetrahydro-1H-pyrrolo[2,3-c]pyridin-2-yl)(3-(difluoromethyl)azetidin-1-yl)methanone] | > 100 µM
